Here are results for 15 compounds from PMC9458978, “Design, synthesis and biological evaluation of novel biphenylsulfonamide derivatives as selective AT2 receptor antagonists” (Frontiers in Chemistry, 2022).

Series [1] concerns the target T1, AT1 receptor (Rattus norvegicus, UniProt P25095).
T1 construct: Rat liver membranes were prepared according to the method of Dudley et al; from tissue; host or cells: rat liver membranes
The series can be described thus: Rat liver membrane AT1 receptor binding assay ([125I]-Ang II displacement). To be noted: displacement of [125I]-Ang II, rat liver membranes; means ± SE, triplicate; read-out: Ki (nM) AT1R. How it is done:
The target compounds were evaluated for AT1 receptor binding affinity by displacement of [^125I]-Ang II from the AT1 receptor in rat liver membranes. The radio-iodinated AT2 receptor selective ligand [^125I]-CGP42112 was used to study AT2 receptor binding affinity in HEK-293 cells (HEK293-hAT2R) ([Dudley et al., 1990]; [Whitebread et al., 1991]). All of above methods were widely accepted and used to evaluate the binding activity of AT1 and AT2 receptors.
Rat liver membranes were prepared according to the method of Dudley et al ([Dudley et al., 1990]). After HEK-293 cells were transfected with the AT2 receptor, a lysis buffer was used to separate the cell membrane of HEK-293 cells ([Grieger et al., 2016]), using 27-G Resuspend. The lysis solution was mixed and centrifuged at 12,000 g for 10 min at 4°C. Details are shown in the Supplementary Material.
3. Radioligand binding assay steps
3.1 Rat Liver Membrane AT1 Receptor Binding Assay.
Rat liver membranes were prepared according to the method of Dudley et al[1].
Binding of [125I]-Ang II to membranes was conducted in a final volume of 0.5 mL containing 50 mM Tris-HCl (pH 7.4), 100 mM NaCl, 10 mM MgCl2, 1 mM EDTA, 0.025% bacitracin, 0.2% BSA (bovine serum albumin), liver homogenate corresponding to 5 mg of the original tissue weight, [125I]-Ang II (80000-85 000 cpm, 0.03 nM), and variable concentrations of test substance. Samples were incubated at 25 ℃ for 2 h, and binding was terminated by filtration through Whatman GF/B glass-fiber filter sheets, which had been presoaked overnight with 0.3 % polyethylamine, using a Brandel cell harvester. The filterswere washed with 3×3 mL of Tris-HCl (pH 7.4) and transferred to tubes. The radioactivity was measured in a γ-counter. The characteristics of the Ang II binding AT1receptor was determined by using six different concentrations (0.03-5 nmol/L) of the labeled [125I]-Ang II.
Nonspecific binding was determined in the presence of 1 µM Ang II.The specific binding was determined by subtracting the nonspecific binding from the total bound [125I]-Ang II.The apparent dissociation constant Ki values were calculated from IC50 values using the Cheng-Prusoff equation. […]
(§1) one-site fit.All determinations were performed in triplicate. […]
(In general: In a radioligand displacement assay an active substance lowers the binding of a labelled ligand.)

Series [2] concerns the target T2, AT2 receptor (Homo sapiens, UniProt P50052).
T2 construct: expressed in transfected cells; host or cells: HEK-293
T2 sequence (P50052 1-363): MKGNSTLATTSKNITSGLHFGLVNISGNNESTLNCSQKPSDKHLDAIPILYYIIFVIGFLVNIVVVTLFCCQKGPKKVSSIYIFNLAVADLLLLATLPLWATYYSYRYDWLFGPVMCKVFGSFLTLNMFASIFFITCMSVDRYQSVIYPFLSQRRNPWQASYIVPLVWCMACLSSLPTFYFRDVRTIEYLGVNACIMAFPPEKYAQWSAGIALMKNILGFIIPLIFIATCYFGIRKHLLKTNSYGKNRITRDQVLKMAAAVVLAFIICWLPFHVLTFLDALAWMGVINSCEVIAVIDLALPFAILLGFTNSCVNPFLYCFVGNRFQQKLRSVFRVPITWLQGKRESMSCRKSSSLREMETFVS
The series can be described thus: HEK-293 cell AT2 receptor binding assay ([125I]-CGP42112 displacement, HEK293-hAT2R). How it is done:
All of above methods were widely accepted and used to evaluate the binding activity of AT1 and AT2 receptors.
The lysis solution was mixed and centrifuged at 12,000 g for 10 min at 4°C. Details are shown in the Supplementary Material.
After HEK-293 cells were transfected with AT2 receptor, lysis buffer (150 mM NaCl, 0.1% Triton X-100, 50 mM Tris-HCl, 1 mM EDTA, protease inhibitor) was used to separate the cell membrane of HEK-293 cells[2],using 27-G Resuspend and mix the lysis solution, and centrifuge at 12,000 g for 10 minutes at 4 °C. The supernatant was collected and centrifuged for a further 60 minutes. The precipitated membrane extracts were buffered (150 mM NaCl, 10 mM MgCl2, 0.5 % SDS, 1 % Triton X-100, 50 mM Tris-Cl, 1 mM EDTA, protease inhibitor ) for resuspension. […]
mL containing 50 mM Tris-HCl (pH 7.4), 100 mM NaCl, 10 mM MgCl2, 1 mM […]
cpm, 0.03 nM), and variable concentrations of test substance. Samples were incubated at 25 ℃ for 2 h, and binding was terminated by filtration through Whatman GF/B glass-fiber filter sheets, which had been presoaked overnight with 0.3 % polyethylamine, using a Brandel cell harvester. The filterswere washed with 3×3 mL of Tris-HCl (pH 7.4) and transferred to tubes. The radioactivity was measured in a γ-counter. The characteristics of the Ang II binding AT1 receptor was determined by […]
Nonspecific binding was determined in the presence of 1 µM Ang II.The specific binding was determined by subtracting the nonspecific binding from the total bound The apparent dissociation constant Ki values were calculated from IC50 values using the Cheng-Prusoff equation. […]
as §1

Series [3] deals with AT2 receptor. Briefly: Neurite outgrowth assay with NG108-15 cells (AT2 receptor function assay). The method, then:
The ratio of cell neurite outgrowth was used to evaluate, and the details are shown in the Supplementary Material.
NG108-15 cells (China Center for Type Culture Collection CCTCC) were used to study the in vitro morphological effects. In their undifferentiated state, neuroblastoma × glioma hybrid NG108-15 cells havea rounded shape and divide actively. The cells were cultured from passage 18–25 in Dulbecco’s modified Eagle’s medium (DMEM, Gibco BRL, Thermo Fisher Technology (China) Co., Ltd, China) with 10% fetal bovine serum (FBS, Gibco), HAT supplement and 50 mg L^−1 gentamycin at 37°C in 75 cm^2 Nunclon Delta flasks in a humidified atmosphere of 95% air and 5% CO2, as previously described ([Buisson et al., 1992]). Subcultures were performed at subconfluency. Under these conditions, cells express mainly the AT2 receptor subtype ([Whitebread et al., 1991]). Cells were treated during 3 days, once a day (first treatment 24 h after plating), and micrographs were taken on the fourth day. The details of experimental grouping and administration method are shown in the Supplementary Material. […]
4. NG108-15 cell experiment steps […]
peptidic AT2 receptor agonist CGP-42112A induces neurite outgrowth. The […]
plated as described in the Experimental Section, and adequate test concentrations for […]
each compound were determined by testing a dilution series of each compound […]
ranging from 1 pM to 1 uM.
The chemicals used in the present study were obtained from the following sources: Dulbecco’s modified Eagle’s medium (DMEM), heat-inactivated fetal bovine serum (FBS), HAT supplement (hypoxanthine, aminopterin, thymidine), gentamycin from Gibco BRL (Burlington, Ontario, Canada), and Ang II from MedChemExpress

By Ki is commonly meant a measure of affinity in units of concentration, obtained from inhibition or displacement. Usually melting point stands for the temperature of the solid-liquid transition.

Where two headings read alike, the source gives them in different places.

T1 sequence (P25095 whole entry): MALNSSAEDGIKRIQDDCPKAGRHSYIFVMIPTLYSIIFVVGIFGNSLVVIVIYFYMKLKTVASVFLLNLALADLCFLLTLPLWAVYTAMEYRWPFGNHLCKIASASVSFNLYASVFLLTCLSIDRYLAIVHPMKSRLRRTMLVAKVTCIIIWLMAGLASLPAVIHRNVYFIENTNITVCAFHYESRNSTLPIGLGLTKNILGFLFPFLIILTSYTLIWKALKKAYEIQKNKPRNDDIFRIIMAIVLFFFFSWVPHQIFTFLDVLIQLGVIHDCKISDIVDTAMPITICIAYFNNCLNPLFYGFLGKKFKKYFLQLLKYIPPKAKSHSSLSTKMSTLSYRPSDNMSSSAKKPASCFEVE

For the compound `CCCCC(=O)NS(=O)(=O)c1ccc(CC(C)C)cc1-c1cccc(Cn2cncn2)c1` [8a, N-((3'-((1H-1,2,4-triazol-1-yl)methyl)-5-isobutyl-[1,1′-biphenyl]-2-yl)sulfonyl)pentanamide], the melting point is 138.4 to 139.7 °C. Further, in series [1], the Ki was 629.4 ± 1.1 nM. Besides, the Ki in series [2] was determined as 873.7 ± 1.1 nM.

Consider `CCCCOC(=O)NS(=O)(=O)c1ccc(CC(C)C)cc1-c1cccc(Cn2cncn2)c1` [8b, ((3'-((1H-1,2,4-triazol-1-yl)methyl)-5-isobutyl-[1,1′-biphenyl]-2-yl)sulfonyl)carbamae], for which the melting point was 148.1 to 149.3 °C. In addition, the inhibition constant (Ki) in series [1] was 846.1 ± 1.17 nM. The compound also yielded a Ki in series [2] of 273.5 ± 1.2 nM.

`CC(C)COC(=O)NS(=O)(=O)c1ccc(CC(C)C)cc1-c1cccc(Cn2cncn2)c1` [8c, Isobutyl((3'-((1H-1,2,4-triazol-1-yl)methyl)-5-isobutyl-[1,1′-biphenyl]-2-yl)sulfonyl)carbamate]: the melting point lay within 145.3 to 146.2 °C. Further, the Ki in series [1] is 1037 ± 1.1 nM. For the same compound, the Ki in series [2] worked out at 322 ± 1.24 nM.

Take `CCCCC(=O)NS(=O)(=O)c1ccc(CCCC)cc1-c1cccc(Cn2cncn2)c1` [8e, N-((3'-((1H-1,2,4-triazol-1-yl)methyl)-5-butyl-[1,1′-biphenyl]-2-yl)sulfonyl)pentanamide]: the melting point was 141.8 to 142.4 °C. Moreover, the inhibitory constant (Ki) in series [1] was found to be 505.2 ± 1.4 nM. In series [2], the affinity, expressed as Ki, was 753.9 ± 1.1 nM.

`CCCCOC(=O)NS(=O)(=O)c1ccc(CCCC)cc1-c1cccc(Cn2cncn2)c1` [8f, Butyl((3'-((1H-1,2,4-triazol-1-yl)methyl)-5-butyl-[1,1′-biphenyl]-2-yl)sulfonyl)carbamate]: the melting point fell in the range of 150.1 to 151.4 °C. The inhibition constant (Ki) in series [1] was determined as 1425 ± 1.12 nM. Moreover, the Ki in series [2] is 252.7 ± 1.2 nM.

In turn, `CCCCc1ccc(S(=O)(=O)NC(=O)OCC(C)C)c(-c2cccc(Cn3cncn3)c2)c1` [8g, Isobutyl((3'-((1H-1,2,4-triazol-1-yl)methyl)-5-butyl-[1,1′-biphenyl]-2-yl)sulfonyl)carbamate] yielded a melting point of 168.4 to 169.1 °C. Also, the Ki in series [1] came to 945.5 ± 1.22 nM. For the same compound, affinity in series [2] was put at a Ki of 347.5 ± 1.36 nM.

With `CCCCC(=O)NS(=O)(=O)c1ccc(CC(C)C)cc1-c1cccc(Cn2cccn2)c1` [9a, N-((3'-((1H-pyrazol-1-yl)methyl)-5-isobutyl-[1,1′-biphenyl]-2-yl)sulfonyl)pentanamide], the melting point was 125.8 to 126.7 °C. The Ki in series [1] is 1264 ± 1.14 nM. Also, the Ki in series [2] is 1152 ± 1.1 nM.

Turning to `CCCCOC(=O)NS(=O)(=O)c1ccc(CC(C)C)cc1-c1cccc(Cn2cccn2)c1` [9b, Butyl((3'-((1H-pyrazol-1-yl)methyl)-5-isobutyl-[1,1′-biphenyl]-2-yl)sulfonyl)carbamate], the melting point was 129.1 to 131.4 °C. Also, the Ki in series [1] was found to be 989.7 ± 1.08 nM. Moreover, the Ki in series [2] (displacement of [125I]-CGP42112, HEK293-hAT2R membranes, means ± SE, triplicate, read-out: Ki (nM) AT2R) was found to be 1027 ± 1.15 nM.

`CC(C)COC(=O)NS(=O)(=O)c1ccc(CC(C)C)cc1-c1cccc(Cn2cccn2)c1` [9c, Isobutyl((3'-((1H-pyrazol-1-yl)methyl)-5-isobutyl-[1,1′-biphenyl]-2-yl)sulfonyl)carbamate]: the melting point lay in the range of 149.6 to 151.3 °C. Further, in series [1], the Ki came out at 1027 ± 1.08 nM. In series [2], this compound yielded a Ki of 916.2 ± 1.3 nM.

`CC(C)Cc1ccc(S(=O)(=O)NC(=O)OC(C)C)c(-c2cccc(Cn3cccn3)c2)c1` [9d, Isopropyl((3'-((1H-pyrazol-1-yl)methyl)-5-isobutyl-[1,1′-biphenyl]-2-yl)sulfonyl)carbamate] had a melting point of 146.6 to 147.5 °C. Further, in series [1], the Ki turned out to be 1549 ± 1.11 nM. Further, the inhibition constant Ki in series [2] was 74.1 ± 1.16 nM.

As to `CCCCC(=O)NS(=O)(=O)c1ccc(CCCC)cc1-c1cccc(Cn2cccn2)c1` [9e, N-((3'-((1H-pyrazol-1-yl)methyl)-5-butyl-[1,1′-biphenyl]-2-yl)sulfonyl)pentanamide], the melting point was in the range of 140.1 to 141.3 °C. Besides, the Ki in series [1] worked out at 363.9 ± 1.28 nM. In series [2], this compound came in with a Ki of 992.9 ± 1.26 nM.

The compound `CCCCOC(=O)NS(=O)(=O)c1ccc(CCCC)cc1-c1cccc(Cn2cccn2)c1` [9f, Butyl((3'-((1H-pyrazol-1-yl)methyl)-5-butyl-[1,1′-biphenyl]-2-yl)sulfonyl)carbamate] gave a melting point of 142.5 to 143.1 °C. In addition, in series [1], the Ki was 1310 ± 1.11 nM. Moreover, the Ki in series [2] worked out at 467.9 ± 1.19 nM.

`CCCCc1ccc(S(=O)(=O)NC(=O)OCC(C)C)c(-c2cccc(Cn3cccn3)c2)c1` [9g, Isobutyl((3'-((1H-pyrazol-1-yl)methyl)-5-butyl-[1,1′-biphenyl]-2-yl)sulfonyl)carbamate] showed a melting point of 149.3 to 151.2 °C. For the same compound, the Ki in series [1] was 1212 ± 1.12 nM. In series [2], this compound displayed a Ki of 513.3 ± 1.18 nM.

Regarding `Cc1cc(Cn2cnc3c2C[C@@H](C(=O)O)N(C(=O)C(c2ccccc2)c2ccccc2)C3)ccc1N(C)C` [PD-123,319, reference compound], the “morphology compared to untreated cells” value in series [3] (PD-123,319 alone) is reported as “did not alter”.

With Ang II [reference compound], the “ratio of cell neurite outgrowth (cells with neurites as percentage of total cells)” value in series [3] (3-day treatment, substance alone (Ang II 100 nM; compounds 10 or 100 nM)) is reported as roughly 20%.
